How the values were obtained:
[1] = tested on: injury-induced OA model; experiment: pain behavior in injury-induced OA model (DMM surgery; Von Frey test, static weight bearing); format: in vivo, mice; conditions: NR 400 mg/kg/day, PT 80 mg/kg/day
Procedure: In vivo studies were designed to determine if oral supplementation of NR+PT (5:1) with NR at 400 mg/kg/day (the commonly used dose in animal studies) and PT at 80 mg/kg/day is better than NR alone (400 mg/kg/day) or PT alone (80 mg/kg/day), in limiting cartilage degradation and reducing pain in an injury-induced OA model. […] Because synergistic or additive effect of NR+PT combination was not initially observed, in vitro studies tested the combination of NR and PT at different ratio (NR:PT, 1:1, 2:1, 4:1, 6:1) and different concentrations (based on PT concentration at 25, 50 and 100 uM) on chondrocyte response to IL-1beta. Because IL-1b is known to induce nitric oxide (NO) production in chondrocytes, NO release (measured from the conditioned media) was used as a readout. It was determined that NR+PT at 2:1 ratio had the best efficacy in inhibition of IL-1b induced NO release, particularly for NR at 0.1 mM and PT at 0.05 mM. […] See, FIGS. 1 and 2. C57BL/6J mice at 12 weeks of age were subjected to joint injury via destabilization of medial meniscus (DMM) surgery through transection of meniscotibial ligament. Sham surgery (just skin incision) was performed on separate group of mice. […] Pain-like behaviors was evaluated at baseline (1 weeks before the surgery) and 2, 4, 6, 8 and 10 weeks after DMM surgery. • 1. […]

[2] = cited from earlier work

## NC(=O)c1ccc[n+]([C@@H]2O[C@H](CO)[C@@H](O)[C@H]2O)c1 [NR, nicotinamide riboside]
[1]; NR+PT 5:1, gavage daily
  efficacy on pain, comparison among treatment groups: slightly better efficacy
[1]; NR+PT 5:1, gavage daily after DMM surgery
  pain compared to the non-treated controls: significantly less pain
[2]; germ-free mice after oral intake
  reduction of conversion of NR to NAM: 3 fold
[2]; mouse, in vivo
  stability of NR in gut and circulation: rapidly degraded to NAM

Reference: patent US20260053837A1, “NICOTINAMIDE-RIBOSIDE AND PTEROSTILBENE COMBINATIONS TO TREAT OSTEOARTHRITIS” (The Regents of the University of California, priority 2022, published 2026)
